Measurements reported in patent publication EP3658131B1, “COMPOSITION FOR THE TREATMENT OF BACTERIAL VAGINOSIS” (Farma-Derma S.R.L., priority 2017, dated 2019).

How the values were obtained:
Type in all cases: cell-based
[1] = system: Escherichia coli ATCC 8739; experiment: Reduction of microbial load after incubation with the mixtures (Test 2); details: 4 hours at 37°C
Description: (§1) 3 different mixtures of substances were prepared whose composition is described below: − MD(5mg) + AL(90%,11mg) [formula] − DQC(8mg) [formula] − DQC(8mg) + MD(5mg) + AL(90%,11mg) [formula]
(§2) To evaluate the antibacterial efficacy of the ingredients in the three compositions described above, the pure raw materials directly dissolved in the culture medium were tested. Aliquots of the 3 mixtures were prepared for each of the bacterial strains being evaluated. Each mixture was placed in a receptacle containing a suitable volume of a peptone water solution with pH 5.5 having a concentration of the bacterial strain equal to at least 10^5 CFU/ml.
(§3) Each container was placed in incubation at 37°C for 4 hours to promote the dissolution and the action of the ingredients. A negative control was prepared for each strain i.e. a solution without the presence of the substances being tested, which is treated in the same experimental conditions as the receptacles containing the mixtures being tested.
(§4) At the end of the incubation period the contents of each container were neutralised and seeded in a suitable culture medium, the micro-organisms that had grown were counted. Each seeding was performed in triplicate.

[2] = system: Gardnerella vaginalis ATCC 11418; experiment: as above; details: 4 hours at 37°C
Description: as §1, §2, §3, §4

[3] = system: Prevotella loescheii ATCC 15930; experiment: as above; details: 4 hours at 37°C
Description: as §1, §2, §3, §4

[4] = system: Staphylococcus aureus ATCC 6538; experiment: as above; details: 4 hours at 37°C
Description: as §1, §2, §3, §4

[5] = system: Lactobacillus Acidophilus ATCCC 4356; experiment: Survival/growth of lactobacilli after incubation with the mixtures (Test 2); details: 4 hours at 37°C
Description: as §1, §2, §3, §4

[6] = system: Gardnerella vaginalis ATCC 11418 + Lactobacillus Acidophilus ATCCC 4356; experiment: Survival/growth of lactobacilli in metabolic competition with a pathogenic strain (Test 2); details: for Reduction in microbial load with respect to the negative control: values only refer to the lactobacilli, negative value = growth
Description: The selectivity of the compostion is verified by evaluating the survival ability of the Lactobacillus Acidophilus in the presence and absence of another bacterial strain in metabolic competition.
as §1, §2, §3, §4

[7] = peptone water pH 5.5, at least 10^5 CFU/ml, mean of 3 replicates

Cc1cc(N)c2ccccc2[n+]1CCCCCCCCCC[n+]1c(C)cc(N)c2ccccc21 [DQC, dequalinium chloride]
Reduction in microbial load with respect to the negative control ([1]; peptone water pH 5.5): 50.60%
Microbial load [1, 7]: 1,037,400 CFU/ml
Reduction in microbial load with respect to the negative control ([2]; peptone water pH 5.5): 74.31%
Microbial load [2, 7]: 4,205 CFU/ml
Reduction in microbial load with respect to the negative control ([3]; peptone water pH 5.5): 90.56%
Microbial load [3, 7]: 3,367 CFU/ml
Reduction in microbial load with respect to the negative control ([4]; peptone water pH 5.5): 60.00%
Microbial load [4, 7]: 14,267 CFU/ml
Microbial load [5, 7]: 5,267 CFU/ml
Reduction in microbial load with respect to the negative control ([5]; peptone water pH 5.5, negative value = growth): 96.18%
Microbial load ([6]; values only refer to the lactobacilli (selective media), 4 hours at 37°C, pH 5.5, mean of 3 replicates): 1,400 CFU/ml
Reduction in microbial load with respect to the negative control [6]: 60.00%
Reduction in microbial load with respect to the negative control ([6]; listed as dequalinium): 60.00%
